{"source": "patent US9018188B2", "about": "“MicroRNA inhibitors” (Ottawa Hospital Research Institute, priority 2011, dated 2015)", "key": {"[1]": {"tested_on": "IL-1β and TNF-α", "conditions": "mouse, in vivo"}, "[2]": {"tested_on": "TA muscles", "assay": "High-resolution respirometry on TA muscles after ASO treatment", "type": "in vivo, mouse", "source_text": "To quantify bioenergetic effects of miR-133 ASO induced BAT in muscle, Applicant performed high-resolution respirometry on TA muscles after 2 months of either control- or miR-133 ASO treatment (C57BL/6 male fed on RD, n=6 in each treatment group). […] This marked difference in the response to FA is consistent with reported acute activation of mitochondrial respiration rates in brown adipocytes exposed to fatty acids (Matthias et al., 2000).\nSurgically extracted tibialis anterior (TA) and contralateral soleus (SOL) muscles were immediately placed in ice-cold biopsy preservation solution (BIOPS) containing […], 7.23 mM K2EGTA buffer, 0.1 μM free calcium, 20 mM imidazole, 20 mM taurine, 50 mM 2-(N-Morpholino)ethanesulfonic acid hydrate (K-MES), 0.5 mM dithiothreitol (DTT), 6.56 mM […], 5.77 mM ATP, and 15 mM phosphocreatine (pH 7.1). The TA muscle was cut longitudinally into 4 equal parts, 2 of which were assessed by respirometry as intact cells and 2 after chemical permeabilization of the sarcolemma. The SOL muscle was cut in half longitudinally and both sections were permeabilized before respirometry. Prior to permeabilization muscle samples were gently dissected with two pairs of sharp forceps, achieving a high degree of fibre separation verified microscopically. Chemical permeabilization was achieved by incubation of the fibres with saponin (50 μg/mL) in 2 mL of BIOPS for 30 minutes at 4° C. (Gnaiger, 2009b). Permeabilized samples were then rinsed with a mitochondrial respiration medium (MiR05) containing 0.5 mM EGTA, 3 mM MgCl2.6H2O, 60 mM K-lactobionate, 20 mM taurine, 10 mM KH2PO4, 20 mM HEPES, 110 mM sucrose, and 1 g/L bovine serum albumin (pH 7.1).\nMuscle bundles (both intact TA, and permeabilized TA and SOL) were blotted and measured for wet weight in a balance controlled for constant relative humidity, providing hydration consistency and stability of weight measurements. Each sample was then placed into a single chamber of the high-resolution Oroboros Oxygraph-2k (Oroboros, Innsbruck, Austria) containing MiR05 solution and measured at 37° C. The Oxygraph is a two-chamber titration-injection respirometer with an oxygen detection limit of up to 0.5 pmol·sec^−1·mL^−1. Standardized instrumental calibrations were performed to correct for back-diffusion of oxygen into the chamber from the various components, leak from the exterior, and sensor oxygen consumption. Oxygen flux was resolved by software allowing nonlinear changes in the negative time derivative of the oxygen concentration signal (Oxygraph 2k, Oroboros, Innsbruck, Austria).\nLeak respiration was induced with the addition of malate (2 mM) and octanoyl carnitine (0.2 mM). This state represents the oxygen consumption of an unaltered and intact electron transport system (ETS) without the exogenous provision of adenylates. In the LN state, the chemiosmotic gradient is at maximum and oxygen flux represents proton leak, slip, and cation cycling in muscle (Pesta and Gnaiger, 2011) and maximal respiration in BAT induced by fatty acids (Matthias et al. 2000). Further uncoupling of the ETS in muscle cells was assessed with the proton ionophore, carbonyl cyanide p-(trifluoromethoxy) phenylhydrazone (FCCP; 0.7 μM per titration up to concentrations ranging from 2.5-4 μM) to achieve a maximal uncoupling response.\nLeak respiration in the absence of adenylates (LN) was induced with the addition of malate (2 mM) and octanoyl carnitine (0.2 mM). Lipid oxidative phosphorylation capacity (PETF) and maximal electron flow through electron transferring-flavoprotein (ETF) was determined following the addition of ADP (5 mM). […]"}, "[3]": {"tested_on": "miR-133a and miR-133b", "assay": "RT-qPCR of miR-133 expression after intramuscular ASO injection", "type": "in vivo, mouse", "source_text": "To investigate miR-133 function in brown adipose determination of satellite cells in vivo, Applicant synthesized miR-133 antagomiR (miR-133 antisense oligonucleotide (ASO)) with an antisense sequence to both miR-133a and miR-133b, as well as a control “antagomiR” (control ASO) with the same chemical modifications and not antisense to any mouse gene or EST sequence (see Experimental Procedures). Applicant performed lineage tracing to distinguish effects of miR-133 ASO on satellite cells versus other cell types. Six week old Pax7-CreER; R26R-tdTomato mice were treated with tamoxifin as before (5 consecutive daily injections), then aged to 10 weeks of age prior to initiating the experiment. Control ASO versus miR-133 ASO were injected into tibialis anterior (TA) muscles 3 days following saline injection (quiescent state) or cardiotoxin injection (to induce activation). After one month, RT-qPCR was performed using RNA isolated from several tissues to evaluate the efficacy and scope of miR-133 ASO administration.\nTo induce brown adipocytes in vivo, 10 mg/mL Cardiotoxin solution (50 μl) was intramuscularly injected into TA muscles of 10-week old Pax7-CreER/R26R-tdTomato mice (FIG. 4) or C57BL/6 mice (FIG. 5 and FIG. 6). Alternatively, frozen injury was performed by applying liquid nitrogen cooled tweezers tips directly onto the anterior sides of TA muscles. After 3 days, 20 μg of miR-133 antagomiR or control antagomiR in saline (50 μl) was intramuscularly injected into the same injured TA muscles (on right hindlimbs). To test efficacy of miR-133 ASO in intact muscles, saline, instead of Cardiotoxin, was injected to TA muscles before miR-133 ASO administration (FIGS. 4A, 4B). miR-133 antagomiR and scramble antagomiR were designed as previously described (Krutzfeldt et al., 2005).\nTotal RNA was extracted from cells by TRIzol or Arcturus® PicoPure® RNA Isolation Kit (Applied Biosystems) following manufactures' recommendations. […]"}}}
{"substance": "*mA*mUmAmGmCmUmGmGmUmUmGmAmAmGmGmGmGmAmC*mC*mA*mA*mAChl [miR-133 ASO]", "values": [{"measurement": "expression of IL-1β and TNF-α between control- and treated muscles", "setting": "[1]", "result": "no difference"}, {"measurement": "additional energy expenditure in the treated TA muscle from uncoupling respiration", "setting": "[2]; by calculation", "result": 0.3, "unit": "cal/h/mg"}, {"measurement": "higher respiration rate versus control", "setting": "[2]; intact TA muscle with FA", "result": 1.75, "unit": "fold"}, {"measurement": "mitochondrial respiration rate after titration of FA (octanoyl carnitine), uncoupled/intact cells", "setting": "[2]; intact TA muscle, 2 months after treatment, C57BL/6 male on RD, n=6", "result": "13.5±1", "unit": "pmol·sec^−1·lo^−1"}, {"measurement": "respiration rate in response to ADP (state-3 respiration mediated by ETF)", "setting": "[2]; permeabilized TA muscle", "result": "unchanged"}, {"measurement": "state 3 respiration rates with complex I+II substrates (P I+II) versus control", "setting": "[2]; permeabilized TA muscle, addition of succinate", "result": "no difference"}, {"measurement": "electron transport through complex I (NADH dehydrogenase) respiration rate", "setting": "[2]; permeabilized TA muscle, after titration of glutamate, p=0.2 versus control", "result": "33±3", "unit": "pmol·sec^−1lo^−1"}, {"measurement": "miR-133a/b expression in the contralateral TA muscles", "setting": "[3]; ASO injected into resting muscles", "result": "repressed"}, {"measurement": "miR-133 expression in the myocardium", "setting": "[3]; intramuscular administration", "result": "unaffected"}, {"measurement": "miR-133a and miR-133b expression within the injected TA muscles", "setting": "[3]; intramuscular, one month after injection, resting or regenerating muscle", "result": "striking reduction"}]}
